According to ChEMBL document CHEMBL1862790, “Optimisation of fenarimol series for the treatment of Chagas disease”:

Tests used:
[1] = DNDI: Cytotoxicity against L-6 rat myoblasts from skeletal muscle cells; details: L6 rat skeletal muscle myoblast cells
Trypanosoma cruzi [2] = experiment: microbe, parasite or virus in culture; type: functional, Tulahuen LacZ, Clone C4
Trypanosoma cruzi [3] = experiment: microbe, parasite or virus in culture; type: functional, organism-based, Tulahuen LacZ, Clone C4
[4] = Trypanosoma cruzi, Tulahuen LacZ, Clone C4

Row | Structure (SMILES) | IC50 ([1]; IC50) [nM] | IC90 (Trypanosoma cruzi [2]; [4]) [nM] | IC50 (Trypanosoma cruzi [3]; [4]) [nM] | IC50 [1] [nM] | IC90 (Trypanosoma cruzi [2]) [nM] | IC50 (Trypanosoma cruzi [3]) [nM]
1 | CCNC(=O)N1CCN(C(c2ccc(Cl)cc2)c2cncnc2)CC1 (configuration not stated) | > 100000 | 2720 | 830 | – | – | –
2 | OC(c1ccc(Cl)cc1)(c1cccnc1)c1cc(F)ccc1F (configuration not stated) | – | 108 | 44 | > 100000 | – | –
3 | CN(C)C(=O)NC1CCN(C(c2cnccn2)c2ccc(F)cc2F)CC1 (configuration not stated) | > 100000 | > 1000 | > 1000 | – | – | –
4 | CC(C)(C)NC(=O)N1CCN(C(c2cncnc2)c2ccc(Cl)cc2F)CC1 (configuration not stated) | > 100000 | 110 | 54 | – | – | –
5 | OC(c1ccccc1)(c1cncnc1)c1ccccc1Cl (configuration not stated) | > 100000 | 70000 | 2510 | – | – | –
6 | O=C(c1ccccc1)N1CC(CNC(c2ccc(C(F)(F)F)cc2)c2cccnc2)C1 (configuration not stated) | > 100000 | 142 | 67 | – | – | –
7 | O=C(c1cc(C(O)(c2ccc(Cl)cc2)c2cccnc2)ccc1Cl)N1CCOCC1 (configuration not stated) | > 100000 | 470 | 120 | – | – | –
8 | FC(F)(F)c1ccc(C(c2cncnc2)N2CCN(c3nccs3)CC2)cc1 (configuration not stated) | 68200 | 266 | 109 | – | – | –
9 | O=C(NC1CCN(C(c2cncnc2)c2ccc(Cl)cc2F)CC1)C1CC1 (configuration not stated) | > 100000 | 480 | 150 | – | – | –
10 | CCS(=O)(=O)N1CCC(NC(c2cnccn2)c2ccc(F)cc2F)CC1 (configuration not stated) | > 100000 | > 1000 | 620 | – | – | –
11 | CC(C)c1ccc(S(=O)(=O)NC(c2ccc(C(F)(F)F)cc2)c2cnccn2)cc1 (configuration not stated) | 60000 | > 1000 | > 1000 | – | – | –
12 | O=C(NC1CCN(C(c2cncnc2)c2ccc(Cl)cc2F)CC1)c1cccc(F)c1 (configuration not stated) | 61200 | 204 | 40.5 | – | – | –
13 | CC(C)(C)OC(=O)N1CCC(NC(c2ccc(Cl)cc2)c2cccnc2)CC1 (configuration not stated) | 58200 | 74 | 24 | – | – | –
14 | FC(F)(F)c1ccc(C(NC2CCN(c3ncccn3)CC2)c2cccnc2)cc1 (configuration not stated) | 55100 | 92.5 | 10.5 | – | – | –
15 | O=C(c1ccc(Cl)cc1)c1ccccc1Cl | > 100000 | 10000 | > 10000 | – | – | –
16 | Cc1nc(N2CCC(NC(c3cccnc3)c3ccc(Cl)cc3F)CC2)no1 (configuration not stated) | > 100000 | 140 | 64 | – | – | –
17 | CCC(=O)N1CCC(NC(c2ccc(C(F)(F)F)cc2)c2cnccn2)CC1 (configuration not stated) | > 100000 | > 1000 | > 1000 | – | – | –
18 | Cc1cc(C(=O)N2CCC(NC(c3ccc(C(F)(F)F)cc3)c3cccnc3)CC2)on1 (configuration not stated) | > 100000 | 779 | 363 | – | – | –
19 | CC(C)(C)C(=O)N1CCC(NC(c2ccc(C(F)(F)F)cc2)c2cccnc2)CC1 (configuration not stated) | > 100000 | 266 | 24 | – | – | –
20 | CCOC(=O)N1CCN(C(c2ccc(Cl)cc2)c2cccnc2)CC1 (configuration not stated) | 83200 | 120 | 58 | – | – | –
21 | O=S(=O)(c1ccccc1)N1CCC(NC(c2ccc(C(F)(F)F)cc2)c2cnccn2)CC1 (configuration not stated) | > 100000 | 320 | 170 | – | – | –
22 | Cc1nc(C(=O)NC2CCN(C(c3ccc(C(F)(F)F)cc3)c3cccnc3)CC2)cs1 (configuration not stated) | 43800 | 41 | 17.5 | – | – | –
23 | Cc1cc(C(=O)NC2CCN(C(c3ccc(C(F)(F)F)cc3)c3cccnc3)CC2)n(C)n1 (configuration not stated) | 54600 | 28.5 | 12 | – | – | –
24 | Clc1ccc(C(NC2CCN(c3ccc(Br)cn3)CC2)c2cccnc2)cc1 (configuration not stated) | 61800 | 84 | 25.7 | – | – | –
25 | OC(c1cccnc1)(c1ccccc1Cl)c1ccccc1C(F)(F)F (configuration not stated) | – | 724 | 297 | > 100000 | – | –
26 | CS(=O)(=O)NC1CCN(C(c2ccc(Cl)cc2)c2cccnc2)CC1 (configuration not stated) | > 100000 | 640 | 100 | – | – | –
27 | CON(C)C(=O)c1cccc(C(O)(c2ccc(Cl)cc2)c2cccnc2)c1 (configuration not stated) | > 100000 | 130 | 38 | – | – | –
28 | CO/N=C(\c1ccc(Cl)cc1)c1cccnc1 | > 100000 | > 1000 | > 1000 | – | – | –

Row | Structure (SMILES) | IC50 ([1]; IC50) [nM] | IC90 (Trypanosoma cruzi [2]; [4]) [nM] | IC50 (Trypanosoma cruzi [3]; [4]) [nM] | IC50 [1] [nM] | IC90 (Trypanosoma cruzi [2]) [nM] | IC50 (Trypanosoma cruzi [3]) [nM]
29 | CN(C)C(=O)NC1CCN(C(c2ccc(Cl)cc2)c2cccnc2)CC1 (configuration not stated) | > 100000 | 110 | 32 | – | – | –
30 | Cc1ncsc1C(=O)N1CCN(C(c2cccnc2)c2ccc(C(F)(F)F)cc2F)CC1 (configuration not stated) | 96900 | 131 | 58.5 | – | – | –
31 | N#Cc1ccccc1C(O)(c1ccc(Cl)cc1)c1cccnc1 (configuration not stated) | > 100000 | 150 | 62 | – | – | –
32 | OC(c1cccnc1)c1ccc(Cl)cc1F (configuration not stated) | > 100000 | > 1000 | > 1000 | – | – | –
33 | O=S(=O)(c1ccccc1)N1CCC(NC(c2cnccn2)c2ccc(F)cc2F)CC1 (configuration not stated) | 72200 | 880 | 400 | – | – | –
34 | O=C(C1CC1)N1CCN(C(c2ccc(C(F)(F)F)cc2)c2cccnc2)CC1 (configuration not stated) | > 100000 | 183 | 50.5 | – | – | –
35 | O=S(=O)(NC1CCN(C(c2ccc(C(F)(F)F)cc2)c2cnccn2)CC1)C1CCCCC1 (configuration not stated) | 57900 | 780 | 280 | – | – | –
36 | CC(C)c1ccc(S(=O)(=O)NC2CCN(C(c3ccc(C(F)(F)F)cc3)c3cnccn3)CC2)cc1 (configuration not stated) | 18400 | > 1000 | 520 | – | – | –
37 | CCn1nc(C)cc1C(=O)N1CCC(NC(c2ccc(C(F)(F)F)cc2)c2cccnc2)CC1 (configuration not stated) | > 100000 | 206 | 70.5 | – | – | –
38 | CON=C(Cc1ccccc1)c1ccc(Cl)cc1 | 70200 | > 10000 | > 10000 | – | – | –
39 | N#Cc1cnc(N2CCC(NC(c3ccc(Cl)cc3)c3cccnc3)CC2)s1 (configuration not stated) | 48600 | 25 | 17 | – | – | –
40 | N#Cc1ccc(C(O)(c2ccc(C(F)(F)F)cc2)c2cccnc2)cc1 (configuration not stated) | 63300 | 32 | 12 | – | 33 | 18
41 | CCN1CCC(NC(c2ccc(C(F)(F)F)cc2)c2cnccn2)CC1 (configuration not stated) | > 100000 | > 1000 | > 1000 | – | – | –
42 | OC(CC1CCCCC1)(c1ccc(Cl)cc1)c1cncnc1 (configuration not stated) | 64700 | 368 | 154 | – | – | –
43 | NC(=O)c1ccc(C(O)(c2ccc(C(F)(F)F)cc2)c2cccnc2)cc1 (configuration not stated) | > 100000 | 390 | 120 | – | – | –
44 | OC(c1ccc(Cl)cc1)(c1cccnc1)c1cncs1 (configuration not stated) | > 100000 | 500 | 140 | – | – | –
45 | O=C(Cc1ccccc1)NC1CCN(C(c2cnccn2)c2ccc(F)cc2F)CC1 (configuration not stated) | > 100000 | > 1000 | 700 | – | – | –
46 | COc1ccc(CNC(c2ccc(Cl)cc2)c2cccnc2)cc1 (configuration not stated) | > 100000 | 899 | 78 | – | – | –
47 | Cn1cc(C(=O)NC2CCN(C(c3ccc(C#N)cc3)c3cccnc3)CC2)cn1 (configuration not stated) | 54300 | 300 | 169 | – | – | –
48 | Cc1nc(C(=O)NC2CCN(C(c3ccc(C#N)cc3)c3cccnc3)CC2)co1 (configuration not stated) | > 100000 | 272 | 114 | – | – | –
49 | OC(c1ccc(Cl)cc1)(c1cncnc1)c1ccccc1F (configuration not stated) | > 100000 | 820 | 140 | – | – | –
50 | O=C(c1cscn1)N1CCC(NC(c2ccc(C(F)(F)F)cc2)c2cccnc2)CC1 (configuration not stated) | > 100000 | 833 | 218 | – | – | –
51 | N#Cc1ccc(C(c2cccnc2)N2CCC(NC(=O)c3ccc(F)cc3F)CC2)cc1 (configuration not stated) | > 100000 | 40 | 10 | – | – | –
52 | CCn1cc(C(NC2CCN(c3ccc(F)c(F)c3)CC2)c2cccnc2)cn1 (configuration not stated) | 62300 | 328 | 99 | – | – | –
53 | CC(C)CNC(=O)c1cccc(C(O)(c2ccc(Cl)cc2)c2cccnc2)c1 (configuration not stated) | 60500 | 300 | 98 | – | – | –
54 | O=C(Cc1ccccc1)NC1CCN(C(c2ccc(C(F)(F)F)cc2)c2cnccn2)CC1 (configuration not stated) | > 100000 | 370 | 190 | – | – | –
55 | OC(c1cccnc1)(c1ccsc1)c1ccccc1Cl (configuration not stated) | > 100000 | 875 | 509 | – | – | –
